Results on 48 molecules are retold here after patent publication US20230357099A1, “PYRAZOLO [3,4-B] PYRIDINE-4-CARBOXAMIDE NITRIFICATION INHIBITOR” (EUROCHEM ANTWERPTEN, priority 2020, published 2023).

SMILES strings stand for the structures.

The test system of data set [1] is agricultural soils. The experiment in a line: In soil nitrification inhibition assay. As to conditions: Soil 2; for Nitrification inhibition (%) / inhibition at 100 µM: 7 days, 100 µM of each compound, 6 inhibitors alone and combined with Example 2; for inhibition at 50 µM / inhibition at 100 µM: soil; for inhibition at 50 µM: 50 µM of each compound; for inhibition at 100 µM: 168 h. On the procedure:
Top layer (0 to 10 cm) soil samples were collected from different fields in Belgium (Merelbeke, Sint-Laureins and Moorslede). Vegetation was removed and samples were taken from different plots. All soil samples were mixed and sieved (mesh size 2.8 mm) to filter large debris and homogenize soil. The soil was stored at 5° C. in plastic containers covered with Saran foil to prevent changes in microbial community composition and to maintain the original soil water content.
Soil water content was determined by drying 20 g soil for ≥ 48 h in a 60° C. oven and measuring weight before and after drying. Based on the soil water content (± 20%), compound solutions were prepared so that addition of 200 µl compound and 200 µl NH4Cl solution would result in a final compound concentration of 50 µM (unless otherwise stated) and a final NH4+ concentration of 10 mM. Per treatment, 5 small pots were filled with 20 g soil. Next, the soil was treated first with the respective compound solution and then with the NH4Cl solution. Per tray, positive (50 µM DMP) and negative controls (DMSO) were included. […] Demineralized water was added to the soil every 2 to 3 days to a soil weight of 20 g. In the end, each sample of 20 g soil was dissolved in 100 ml 1 M KCI and shaken for 1 hour, followed by filtration through Whatmann® paper. The filtrate was used to measure pH, NH4+ and NO3— concentrations. The nitrification percentage was calculated as the ratio of the consumed ammonium in treated soil versus the consumed ammonium in non-treated soil; the nitrification inhibition percentage was calculated as ‘100% - the nitrification percentage’.

In data set [2] the test system is Nitrososphaera viennensis. The experiment in a line: Nitrification inhibition assay on Nitrososphaera viennensis (nitrite, Griess). It is filed as cell-based, Nitrososphaera viennensis EN76T. As to conditions: for activity at 2.5 µM: Nitrososphaera viennensis, 2.5 µM compound, structural variants outside formula (I), read-out: Relative nitrification (%) by Nitrososphaera viennensis treated with 2.5 µM compound. In short, it runs like this: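 N. viennensis EN76T cultures in FWM (pH 7.5, NH4Cl-supplemented), 5× concentrated, treated with compounds at 2.5 µM final (0.25% DMSO) and incubated 24 h at 42 °C. Nitrite measured by Griess absorbance at 540 nm against a standard curve. Relative nitrification normalized between DMSO (no compound) and 100 µM PTIO controls.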

In data set [3] the test system is ABIL (ammonia-binding liquid inoculum), nitrifying microbial enrichment containing both AOA and AOB. The experiment in a line: Nitrification inhibition assay on ABIL (ammonium consumption). It is filed as cell-based. The conditions noted are these: for activity at 10 µM: 10 µM compound, structural variants outside formula (I), read-out: Relative nitrification (%) by ABIL treated with 10 µM compound.

Data set [4] concerns Aliivibrio fischeri. It is filed as cell-based. On the procedure: Furthermore, a representative subset was tested on Aliivibrio fischeri growth (formerly known as Vibrio fischeri), a bacterium used in the Microtox assay to test toxic substances in different substrates such as (drinking) water, air, soils and sediments.
Two of these variants were also tested on Aliivibrio fischeri to test possible toxicity.

Turning to `c1nc[nH]n1` [1,2,4-triazole, 1H-1,2,4-triazole], in data set [1], the “Nitrification inhibition (%)” value is 32%. By inhibition is commonly meant the relative decrease from the control value, in per cent. In data set [1] (120 h, 5 days), `S=C1NCCS1` [1,3-thiazolidine-2-thione] registered an inhibition at 50 µM of 59%. The inhibition at 100 µM in data set [1] is 46%.

As to `N#CN=C(N)N` [DCD, dicyandiamide], the “Nitrification inhibition (%)” value in data set [1] was determined as 0%.

Regarding `Cc1cn(C(CC(=O)O)C(=O)O)nc1C` (centres unmarked) [DMPSA, 2-(3,4-dimethyl-pyrazol-1-yl)-succinic acid], the inhibition at 50 µM in data set [1] (72 h, 3 days) is 47%. In addition, the inhibition at 100 µM in data set [1] amounted to 44%. Turning to `COC(C)(C)c1noc(Cc2n[nH]c3ccccc23)n1` [Example 125], the activity at 2.5 µM in data set [2] was determined as 97%. In addition, the activity at 10 µM in data set [3] was 100%. Consider `CSCC(=O)Nc1ccc2[nH]ncc2c1` [Example 126], for which, in data set [2], the activity at 2.5 µM is 100%. The activity at 10 µM in data set [3] worked out at 100%.

On to `CCC(CC)C(CNC(=O)c1n[nH]c2ccccc12)N1CCOCC1` (centres unmarked) [Example 127], for which the activity at 2.5 µM in data set [2] came out at 100%. In addition, the activity at 10 µM in data set [3] worked out at 100%.

Turning to `COCCCCCNC(=O)Nc1ccc2[nH]ncc2c1` [Example 128], in data set [2], the activity at 2.5 µM came to 100%. In data set [3], the activity at 10 µM was determined as 100%. `O=C(O)CC1(CC(=O)Nc2ccc3cn[nH]c3c2)CCCCC1` [Example 129]: the activity at 2.5 µM in data set [2] worked out at 100%. Moreover, in data set [3], the activity at 10 µM amounted to 100%.

Turning to `c1cc(CNCCc2nc(C3CC3)cs2)c2[nH]ncc2c1` [Example 130], the activity at 2.5 µM in data set [2] amounted to 94%. Also, the activity at 10 µM in data set [3] was 100%. For `O=C(Nc1cccc2cn[nH]c12)c1csc(-c2ccccc2)n1` [Example 131], in that order: 100% and 100%.

On to `O=C(NC1CCc2ccccc21)c1n[nH]c2ccccc12` (centres unmarked) [Example 132], for which the activity at 2.5 µM in data set [2] came out at 97%. The activity at 10 µM in data set [3] was 100%. The matching figures for `CC(C)CC(CNC(=O)c1n[nH]c2ccccc12)N1CCOCC1` (centres unmarked) [Example 133]: 100% and 100%. For `COC1(C(=O)Nc2ccc(-n3ncc4ccccc43)cc2)CCOC1` (centres unmarked) [Example 134], in that order: 100% and 100%. For `CS(=O)(=O)c1ccc(-c2noc(-c3cccc4[nH]ncc34)n2)cc1` [Example 135], in that order: 100% and 100%. In the case of `O=C(NCCCSc1ccccc1)c1n[nH]c2ccccc12` [Example 136], the activity at 2.5 µM in data set [2] turned out to be 96%. Further, the activity at 10 µM in data set [3] came to 100%. The matching figures for `O=C(Nc1ccc(C(=O)Nc2cccc3cn[nH]c23)cc1)c1ccccc1` [Example 137]: 98% and 100%. The matching figures for `CC(NC(=O)C1(NC(=O)c2ccc3[nH]ncc3c2)CCCC1)C1CC1` (centres unmarked) [Example 138]: 100% and 100%.

On to `O=S(=O)(Nc1n[nH]c2ccccc12)c1ccccc1C(F)(F)F` [Example 139], for which the activity at 2.5 µM in data set [2] was found to be 97%. For the same molecule, the activity at 10 µM in data set [3] was determined as 100%. The matching figures for `CC(C)n1ncc2ccc(NC(=O)NC3CCN(C)C3=O)cc21` (centres unmarked) [Example 140]: 100% and 100%. For `O=C(c1n[nH]c2ccccc12)N1CCc2ccc(F)cc21` [Example 141], in that order: 93% and 100%.

Turning to `O=C(NCC1CCCO1)c1n[nH]c2ccc(Br)cc12` (centres unmarked) [Example 142], in data set [2], the activity at 2.5 µM is 100%. Moreover, the activity at 10 µM in data set [3] was 100%.

Turning to `CC(CNC(=O)c1cccc2cn[nH]c12)CC1(C)OCCO1` (centres unmarked) [Example 143], in data set [2], the activity at 2.5 µM came out at 100%. Further, in data set [3], the activity at 10 µM amounted to 100%.

With `COCCn1ncc2ccc(NS(=O)(=O)c3ccc4c(c3)CCC4)cc21` [Example 144], in data set [2], the activity at 2.5 µM was determined as 100%. For the same molecule, the activity at 10 µM in data set [3] stood at 100%. As for `O=C(Nc1cccc(/C=C/c2ccccn2)c1)c1n[nH]c2ccccc12` [Example 145], the activity at 2.5 µM in data set [2] is 96%. In addition, in data set [3], the activity at 10 µM is 100%.

`O=C(NCCCCc1ccccc1)c1n[nH]c2ccccc12` [Example 146]: in data set [2], the activity at 2.5 µM was determined as 96%. Moreover, the activity at 10 µM in data set [3] worked out at 100%. The matching figures for `O=C(NCc1ccc(F)cc1C(F)(F)F)c1cccc2cn[nH]c12` [Example 147]: 92% and 100%. For `Cc1ccccc1OCCN(C)C(=O)c1n[nH]c2ccccc12` [Example 148], in that order: 100% and 100%.

As to `O=S(=O)(Nc1cccc2cn[nH]c12)N1CCCCC1` [Example 149], the activity at 2.5 µM in data set [2] worked out at 100%. In addition, in data set [3], the activity at 10 µM turned out to be 100%. As to `CCN(CCC#N)Cn1nc(Cl)c2ccccc21` [Example 150], in data set [2], the activity at 2.5 µM is 100%. In addition, the activity at 10 µM in data set [3] is 100%. In the case of `CCCc1nnc(NCc2cccc3cn[nH]c23)o1` [Example 151], the activity at 2.5 µM in data set [2] turned out to be 94%. Further, the activity at 10 µM in data set [3] worked out at 100%.

`COC(=O)C1(CNCc2cccc3cn[nH]c23)CCOCC1` [Example 152]: the activity at 2.5 µM in data set [2] was 98%. Further, the activity at 10 µM in data set [3] was 100%. The matching figures for `O=S(=O)(Cc1ccccc1F)Nc1ccc2[nH]ncc2c1` [Example 153]: 100% and 100%. The matching figures for `COc1ccc(C(O)CNCc2cccc3cn[nH]c23)cc1` (centres unmarked) [Example 154]: 99% and 100%. For the molecule `CCCC(O)CNCc1cccc2cn[nH]c12` (centres unmarked) [Example 155], the activity at 2.5 µM in data set [2] was 100%. In addition, in data set [3], the activity at 10 µM turned out to be 100%. With `CC1CCCCN1C(=O)c1n[nH]c2ccccc12` (centres unmarked) [Example 156], the activity at 2.5 µM in data set [2] was found to be 100%. Besides, the activity at 10 µM in data set [3] came to 100%.

For the molecule `CC1(C)CN(C(=O)c2n[nH]c3ccccc23)CC[S+]1[O-]` (centres unmarked) [Example 157], the activity at 2.5 µM in data set [2] came to 94%. Also, in data set [3], the activity at 10 µM worked out at 100%. Regarding `FC(F)(F)c1c[nH]c(C2CCN(Cc3cccc4cn[nH]c34)CC2)n1` [Example 158], the activity at 2.5 µM in data set [2] stood at 100%. Moreover, the activity at 10 µM in data set [3] is 100%. For `CN(C(=O)Nc1ccc2c(cnn2C(F)F)c1)C1CCSC1` (centres unmarked) [Example 159], the activity at 2.5 µM in data set [2] was determined as 91%. Also, the activity at 10 µM in data set [3] came to 100%.

For the molecule `COc1ccc(N2CC(C(=O)Nc3ccc4[nH]ncc4c3)CC2=O)cc1` (centres unmarked) [Example 160], the activity at 2.5 µM in data set [2] is 100%. For the same molecule, the activity at 10 µM in data set [3] amounted to 100%. For `O=S(=O)(Nc1ccc2cn[nH]c2c1)c1cccc2ccccc12` [Example 161], the activity at 2.5 µM in data set [2] is 100%. In addition, the activity at 10 µM in data set [3] came out at 100%.

As for `O=C(Nc1ccc2[nH]ncc2c1)C1(c2ccc(F)cc2)CC1` [Example 162], the activity at 2.5 µM in data set [2] came out at 100%. For the same molecule, the activity at 10 µM in data set [3] worked out at 100%.

As for `CCOc1ccc(CN(CC)C(=O)c2n[nH]c3ccccc23)cc1OC` [Example 163], the activity at 2.5 µM in data set [2] turned out to be 99%. In addition, the activity at 10 µM in data set [3] amounted to 100%.

Turning to `COCCN1CCN(Cc2cccc3cn[nH]c23)CC1=O` [Example 164], in data set [2], the activity at 2.5 µM was found to be 100%. In addition, the activity at 10 µM in data set [3] is 100%. With `O=C(NC1CC1)c1cccc(NC(=O)c2n[nH]c3ccccc23)c1` [Example 165], the activity at 2.5 µM in data set [2] worked out at 100%. The activity at 10 µM in data set [3] turned out to be 100%. As to `CC1(C)N([O])C(c2ccccc2)=[N+]([O-])C1(C)C` [PTIO, 2-phenyl-4,4,5,5-tetramethylimidazoline-1-oxyl 3-oxide], the “inhibition in the N. viennensis assay” value in data set [2] (PTIO at 25 µM) is reported as “does not show inhibition anymore”. Further, the “inhibition in the ABIL assay” value in data set [3] (PTIO at 33 µM) is “does not show inhibition anymore”.

As to `CC(C)n1ncc2cc(CNc3ccc4[nH]ncc4c3)cnc21` [drawing 170], in data set [4], the “Growth of Aliivibrio fischeri, relative to control without compound (%)” value came out at 40%. On to `N#Cc1nn(CN2CCSCC2)c2ccc(Cl)cc12` [drawing 171], for which the “Growth of Aliivibrio fischeri, relative to control without compound (%)” value in data set [4] was determined as 3%.
